Experimental data reported in PubChem BioAssay AID624344 (Sanford-Burnham Center for Chemical Genomics, 2012).
Active and inactive are the calls of the source. No rule for the calls is given here.

Columns and labels:
[1] = NFkB reporter suppression in cystic fibrosis bronchial cells – cell-based, uHTS hits, panel, cytotoxicity readout, dose response (AID 624344); conditions: CF bronchial epithelial cells, PAF-induced NFkB reporter inhibition; with PAF, mean of runs
Cytotoxicity = test: as above; conditions: CF bronchial epithelial cells, mean of runs

## COc1ccc(C2=Nn3c(nnc3-c3ccccc3OC)SC2)cc1OC1CCCC1
[1]
  IC50: 0.229 µM
Cytotoxicity
  IC50: > 79 µM (inactive)

## Cc1c([N+](=O)[O-])c2ccc(O)cc2n1-c1ccccc1
[1]
  IC50: 0.851 µM
Cytotoxicity
  IC50: 26.2 µM

## CN(Cc1ccccc1)c1ncnc(N)c1[N+](=O)[O-]
[1]
  IC50: 3.49 µM
Cytotoxicity
  IC50: 54.8 µM (inactive)

## c1cc2[nH]snc2c2nc(C3CC3)nc12
[1]
  IC50: 3.06 µM
Cytotoxicity
  IC50: 13.3 µM

## CC1Sc2ccc(Cl)cc2-c2nc(N)ncc21 (stereo not drawn)
[1]
  IC50: 6.98 µM
Cytotoxicity
  IC50: 75 µM (inactive)

## C[C@@H]1CN([C@H](C)CO)C(=O)c2cc(NC(=O)Nc3ccc(C(F)(F)F)cc3)ccc2O[C@H]1CN(C)S(=O)(=O)c1ccccc1
[1]
  IC50: 9.21 µM
Cytotoxicity
  IC50: 77.2 µM (inactive)

## O=C1CC(=O)OC(c2ccc([N+](=O)[O-])cc2)O1
[1]
  IC50: 2.59 µM
Cytotoxicity
  IC50: 1.79 µM

## O=C(Nc1cccc(S(=O)(=O)N2CCCCC2)c1)Nc1ccc(Cl)cc1Cl
[1]
  IC50: 8.83 µM
Cytotoxicity
  IC50: 10.6 µM

## C=CC[C@]12CC=CC(=O)[C@@]1(O)O[C@H](c1ccc(OC)c(OC)c1)[C@H]2C
[1]
  IC50: 4.61 µM
Cytotoxicity
  IC50: 6.69 µM

## COc1ccc(COC(=O)C2=C(C)NC(=O)NC2c2ccc(F)cc2)cc1 (stereo not drawn)
[1]
  IC50: 8.9 µM
Cytotoxicity
  IC50: 39.8 µM

## COc1cccc(-c2cc(NC=O)c3ncc(-c4ccc(C(C)=O)cc4)n3c2)c1
[1]
  IC50: 11.8 µM
Cytotoxicity
  IC50: 37.2 µM

## CC(C)c1nc(Cl)c(C#N)c2c1CCCC2
[1]
  IC50: 3.57 µM
Cytotoxicity
  IC50: 71.6 µM (inactive)

## COc1nc(N)c(C#N)c(-c2ccc(N(C)CCC#N)cc2)c1C#N
[1]
  IC50: 3.31 µM
Cytotoxicity
  IC50: > 79 µM (inactive)

## COc1cccc(-c2ccc3ncnc(NCc4cccs4)c3c2)c1
[1]
  IC50: 2.91 µM
Cytotoxicity
  IC50: 13.6 µM

## CCOC(=O)Nc1ccc2c(c1)N(C(=O)CCN(CC)CC)c1ccccc1S2=O (stereo not drawn)
[1]
  IC50: 5.94 µM
Cytotoxicity
  IC50: 34.5 µM

## CCOc1ccc(Nc2ncnc3ccc([N+](=O)[O-])cc23)cc1
[1]
  IC50: 1.67 µM
Cytotoxicity
  IC50: 21.4 µM

## Cc1ccc2[nH]cc(C(=O)CCl)c2c1
[1]
  IC50: 2.32 µM
Cytotoxicity
  IC50: 4.07 µM

## COc1cccc(Nc2ncnc3ccc(Br)cc23)c1
[1]
  IC50: 1.08 µM
Cytotoxicity
  IC50: 9.61 µM

## O=c1c(-c2c(O)cc(O)c3c2O[C@H](c2ccc(O)cc2)CC3)c(-c2ccc(O)cc2)oc2cc(O)cc(O)c12
[1]
  IC50: 1.44 µM
Cytotoxicity
  IC50: 5.44 µM

## CCCCCCc1cc2cc(C(=O)OCC)c(=O)oc2cc1O
[1]
  IC50: 7.22 µM
Cytotoxicity
  IC50: 20.2 µM

## COc1ccc(-n2c(C)cc3cc(OC(C)=O)ccc32)cc1
[1]
  IC50: 9.18 µM
Cytotoxicity
  IC50: > 79 µM (inactive)

## Clc1ccccc1C1=Nn2c(nnc2-c2ccncc2)SC1
[1]
  IC50: 0.624 µM
Cytotoxicity
  IC50: > 79 µM (inactive)

## O=c1[nH]c(C2CCN(S(=O)(=O)c3ccc4c(c3)OCCO4)CC2)nc2c1nnn2Cc1c(F)cccc1Cl
[1]
  IC50: 5.74 µM
Cytotoxicity
  IC50: 44.5 µM

## COc1cc(C2c3cc4c(cc3CC3COC(=O)C32)OCO4)cc(OC)c1O (stereo not drawn)
[1]
  IC50: > 79 µM (inactive)
Cytotoxicity
  IC50: > 79 µM (inactive)

## ON=C1c2ccccc2-c2cc(Br)ccc21
[1]
  IC50: 1.87 µM
Cytotoxicity
  IC50: 41.4 µM

## CCCCn1nnnc1C(CCc1ccccc1)N1CCC(n2c(=O)[nH]c3ccccc32)CC1 (stereo not drawn)
[1]
  IC50: 5.91 µM
Cytotoxicity
  IC50: 12 µM

## CC1CCc2sc3ncnc(N4CCOCC4)c3c2C1 (stereo not drawn)
[1]
  IC50: 5.9 µM
Cytotoxicity
  IC50: 7.61 µM

## CCn1c2ccccc2c2cc(/C=N/O)ccc21
[1]
  IC50: 3.38 µM
Cytotoxicity
  IC50: 46.4 µM

## CC(=O)Oc1c(C(=O)c2nnc(C)o2)c(=O)n(Cc2ccccc2)c2ccccc12
[1]
  IC50: 2.36 µM
Cytotoxicity
  IC50: 14.9 µM

## CS(=O)(=O)c1ccc2nc(NC(=O)Nc3cccc(Cl)c3)sc2c1
[1]
  IC50: 3.67 µM
Cytotoxicity
  IC50: 3.28 µM

## COc1cc2c(c(OC)c1OC)-c1ccc(SC)c(=O)cc1C(NC(=O)C(F)(F)F)CC2 (stereo not drawn)
[1]
  IC50: inactive
Cytotoxicity
  IC50: > 79 µM (inactive)

## O=C1Cc2c([nH]c3ccc(Br)cc23)-c2ccccc2N1
[1]
  IC50: 3.75 µM
Cytotoxicity
  IC50: 16.4 µM

## COc1cc(CN(C)c2ccc(S(=O)(=O)N3CCCC3)cn2)ccc1OC(F)F
[1]
  IC50: 0.453 µM
Cytotoxicity
  IC50: > 79 µM (inactive)

## O=c1[nH]c2ccccc2n1C1CCN(C(c2cc3ccccc3o2)c2nnnn2-c2ccc3c(c2)OCCO3)CC1 (stereo not drawn)
[1]
  IC50: 3.2 µM
Cytotoxicity
  IC50: 10.2 µM

## C=CCn1c(Oc2ccccc2F)nc2c1c(=O)n(C)c(=O)n2C
[1]
  IC50: 5.7 µM
Cytotoxicity
  IC50: > 79 µM (inactive)

## COc1cccc(CN(C)C(=O)C(CCSC)NS(=O)(=O)c2ccc3c(c2)OCCO3)c1OC (stereo not drawn)
[1]
  IC50: 3.4 µM
Cytotoxicity
  IC50: 13.3 µM

## O=S1(=O)CC=C(CSC(=S)NC2CCS(=O)(=O)C2)C1 (stereo not drawn)
[1]
  IC50: 3.05 µM

## COC(=O)c1ccc2c(c1)C(C)(C)C(/C=C/c1ccccc1O)=[N+]2C
[1]
  IC50: 5.88 µM
Cytotoxicity
  IC50: 35.4 µM

## O=C(Nc1ccc(Cl)cc1)c1nc[nH]c1C(=O)NCCCCNC(=O)c1[nH]cnc1C(=O)Nc1ccc(Cl)cc1
[1]
  IC50: 1.05 µM
Cytotoxicity
  IC50: 1.11 µM

## NC(=O)c1cc2ccc(O)cc2oc1=Nc1ccccc1
[1]
  IC50: 1.41 µM
Cytotoxicity
  IC50: 44.8 µM

## CCC(CO)Oc1cc(NCc2ccc(Cl)cc2Cl)c2ncn(C(C)C)c2c1 (stereo not drawn)
[1]
  IC50: inactive
Cytotoxicity
  IC50: 11 µM

## O=C(N/N=C/c1ccccc1Cl)c1[nH]c2ccc(Br)cc2c1-c1ccccc1
[1]
  IC50: 10.7 µM

## O=C1C=C(NC2=CC3OC(c4ccccc4)OCC3OC2=O)CCC1 (stereo not drawn)
[1]
  IC50: 3.74 µM
